# Key:
# CASOB (Sicklepod) = assay: Preemergence herbicidal evaluation; format: in vivo, Cassia obtusifolia; details: rated 4-5 weeks after treatment, rating scale 0-9
# Procedure, shortened: (§1)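 Greenhouse preemergence test: seed-soil mix sown on ~1 inch soil; aqueous acetone spray at equivalent of ~0.0156–0.500 kg/ha; greenhouse-held and watered; scored 0–9 visually at 4–5 weeks.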
# [1] = system: IPOHE (Morningglory, Ivyleaf); assay: Preemergence herbicidal evaluation; format: in vivo, Ipomoea hederacea; details: rated 4-5 weeks after treatment, rating scale 0-9
# Procedure, shortened: as §1
# [2] = system: TRZAWR (Wheat, Winter, cv Riband); assay: Postemergence herbicidal evaluation; format: in vivo, Triticum aestivum; details: postemergence
# Procedure, shortened: (§2)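 Two-week seedlings sprayed postemergence at 40 psi; formulation: 1:1 acetone/water, 0.5% TWEEN 20; application ≈0.0156–0.500 kg/ha. Greenhouse grow-out, then 0–9 visual scoring at 4–5 weeks.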
# [3] = system: GLXMAW (Soybean, Williams); assay: Postemergence herbicidal evaluation; format: in vivo, Glycine max, (L.) Merr. cv Williams; details: postemergence
# Procedure, shortened: as §2
# SETVI (Foxtail, Green) = assay: Postemergence herbicidal evaluation; format: in vivo, Setaria viridis; details: postemergence
# Procedure, shortened: as §2
# GALAP (Galium) = assay: Preemergence herbicidal evaluation; format: in vivo, Galium aparine; details: rated 4-5 weeks after treatment, rating scale 0-9
# Procedure, shortened: as §1
# ABUTH (Velvetleaf) = assay: Postemergence herbicidal evaluation; format: in vivo, Abutilon theophrasti; details: postemergence
# Procedure, shortened: as §2
# ZEAMX (Corn, Field) = assay: Preemergence herbicidal evaluation; format: in vivo, Zea mays; details: rated 4-5 weeks after treatment, rating scale 0-9
# Procedure, shortened: as §1
# ECHCG (Barnyardgrass) [4] = assay: Postemergence herbicidal evaluation; format: in vivo, Echinochloa crus-galli; details: postemergence
# Procedure, shortened: as §2
# [5] = system: CHEAL (Lambsquarters, Common); assay: Preemergence herbicidal evaluation; format: in vivo, Chenopodium album; details: rated 4-5 weeks after treatment, rating scale 0-9
# Procedure, shortened: as §1
# [6] = system: IPOHE (Morningglory, Ivyleaf); assay: Postemergence herbicidal evaluation; format: in vivo, Ipomoea hederacea; details: postemergence
# Procedure, shortened: as §2
# ECHCG (Barnyardgrass) [7] = assay: Preemergence herbicidal evaluation; format: in vivo, Echinochloa crus-galli; details: rated 4-5 weeks after treatment, rating scale 0-9
# Procedure, shortened: as §1
# AMBEL (Ragweed, Common) = assay: Postemergence herbicidal evaluation; format: in vivo, Ambrosia artemisifolia; details: postemergence
# Procedure, shortened: as §2
structure (smiles),measurement,setting,value
"Cn1c(C(F)(F)F)cc(=O)n(-c2cc(N=C3SCC(=O)N3Cc3cc(Cl)cc(Cl)c3)c(Cl)cc2F)c1=O [Compound 150, 3-{4-Chloro-5-{[3-(3,5-dichlorobenzyl)-4-oxo-2-thiazolidinylidene]amino}-2-fluorophenyl}-1-methyl-6-(trifluoromethyl)-2,4(1H,3H)-pyrimidinedione]",Preemergence herbicidal rating CASOB,CASOB (Sicklepod); rate 0.0313 kg/ha,0.0
same,Preemergence herbicidal rating CASOB,CASOB (Sicklepod); rate 0.0625 kg/ha,2.0
same,Preemergence herbicidal rating CASOB,CASOB (Sicklepod); rate 0.1250 kg/ha,1.0
same,Preemergence herbicidal rating CASOB,CASOB (Sicklepod); rate 0.2500 kg/ha,2.0
same,Preemergence herbicidal rating IPOHE,[1]; rate 0.0313 kg/ha,0.0
same,Preemergence herbicidal rating IPOHE,[1]; rate 0.0625 kg/ha,0.0
same,Preemergence herbicidal rating IPOHE,[1]; rate 0.1250 kg/ha,9.0
same,Preemergence herbicidal rating IPOHE,[1]; rate 0.2500 kg/ha,9.0
same,Herbicidal rating TRZAWR,[2]; rate 0.0156 kg/ha,3.5
same,Herbicidal rating TRZAWR,[2]; rate 0.0313 kg/ha,3.5
same,Herbicidal rating TRZAWR,[2]; rate 0.0625 kg/ha,3.5
same,Herbicidal rating GLXMAW,[3]; rate 0.0156 kg/ha,5.0
same,Herbicidal rating GLXMAW,[3]; rate 0.0313 kg/ha,5.5
same,Herbicidal rating GLXMAW,[3]; rate 0.0625 kg/ha,6.0
same,Herbicidal rating SETVI,"SETVI (Foxtail, Green); rate 0.0156 kg/ha",1.0
same,Herbicidal rating SETVI,"SETVI (Foxtail, Green); rate 0.0313 kg/ha",1.0
same,Herbicidal rating SETVI,"SETVI (Foxtail, Green); rate 0.0625 kg/ha",5.0
same,Preemergence herbicidal rating GALAP,GALAP (Galium); rate 0.0313 kg/ha,0.0
same,Preemergence herbicidal rating GALAP,GALAP (Galium); rate 0.0625 kg/ha,0.0
same,Preemergence herbicidal rating GALAP,GALAP (Galium); rate 0.1250 kg/ha,0.0
same,Preemergence herbicidal rating GALAP,GALAP (Galium); rate 0.2500 kg/ha,2.0
same,Herbicidal rating ABUTH,ABUTH (Velvetleaf); rate 0.0156 kg/ha,9.0
same,Herbicidal rating ABUTH,ABUTH (Velvetleaf); rate 0.0313 kg/ha,9.0
same,Herbicidal rating ABUTH,ABUTH (Velvetleaf); rate 0.0625 kg/ha,9.0
same,Preemergence herbicidal rating ZEAMX,"ZEAMX (Corn, Field); rate 0.0313 kg/ha",0.0
same,Preemergence herbicidal rating ZEAMX,"ZEAMX (Corn, Field); rate 0.0625 kg/ha",1.0
same,Preemergence herbicidal rating ZEAMX,"ZEAMX (Corn, Field); rate 0.1250 kg/ha",2.0
same,Preemergence herbicidal rating ZEAMX,"ZEAMX (Corn, Field); rate 0.2500 kg/ha",1.0
same,Herbicidal rating ECHCG,ECHCG (Barnyardgrass) [4]; rate 0.0156 kg/ha,2.0
same,Herbicidal rating ECHCG,ECHCG (Barnyardgrass) [4]; rate 0.0313 kg/ha,1.0
same,Herbicidal rating ECHCG,ECHCG (Barnyardgrass) [4]; rate 0.0625 kg/ha,2.0
same,Preemergence herbicidal rating CHEAL,[5]; rate 0.0313 kg/ha,9.0
same,Preemergence herbicidal rating CHEAL,[5]; rate 0.0625 kg/ha,9.0
same,Preemergence herbicidal rating CHEAL,[5]; rate 0.1250 kg/ha,9.0
same,Preemergence herbicidal rating CHEAL,[5]; rate 0.2500 kg/ha,9.0
same,Herbicidal rating IPOHE,[6]; rate 0.0156 kg/ha,9.0
same,Herbicidal rating IPOHE,[6]; rate 0.0313 kg/ha,9.0
same,Herbicidal rating IPOHE,[6]; rate 0.0625 kg/ha,9.0
same,Preemergence herbicidal rating ECHCG,ECHCG (Barnyardgrass) [7]; rate 0.0313 kg/ha,0.0
same,Preemergence herbicidal rating ECHCG,ECHCG (Barnyardgrass) [7]; rate 0.0625 kg/ha,0.0
same,Preemergence herbicidal rating ECHCG,ECHCG (Barnyardgrass) [7]; rate 0.1250 kg/ha,2.0
same,Preemergence herbicidal rating ECHCG,ECHCG (Barnyardgrass) [7]; rate 0.2500 kg/ha,4.0
same,Herbicidal rating AMBEL,"AMBEL (Ragweed, Common); rate 0.0156 kg/ha",7.0
same,Herbicidal rating AMBEL,"AMBEL (Ragweed, Common); rate 0.0313 kg/ha",9.0
same,Herbicidal rating AMBEL,"AMBEL (Ragweed, Common); rate 0.0625 kg/ha",9.0
"Cn1c(C(F)(F)F)cc(=O)n(-c2cc(N=C3SCC(=O)N3Cc3ccc(F)cc3)c(Cl)cc2F)c1=O [Compound 151, 3-{4-Chloro-2-fluoro-5-{[3-(p-fluorobenzyl)-4-oxo-2-thiazolidinylidene]amino}phenyl}-1-methyl-6-(trifluoromethyl)-2,4(1H,3H)-pyrimidinedione]",Preemergence herbicidal rating CASOB,CASOB (Sicklepod); rate 0.0156 kg/ha,0.0
same,Preemergence herbicidal rating CASOB,CASOB (Sicklepod); rate 0.0313 kg/ha,2.0
same,Preemergence herbicidal rating CASOB,CASOB (Sicklepod); rate 0.0625 kg/ha,2.0
same,Preemergence herbicidal rating CASOB,CASOB (Sicklepod); rate 0.1250 kg/ha,9.0
same,Preemergence herbicidal rating CASOB,CASOB (Sicklepod); rate 0.2500 kg/ha,9.0
same,Preemergence herbicidal rating IPOHE,[1]; rate 0.0156 kg/ha,4.0
same,Preemergence herbicidal rating IPOHE,[1]; rate 0.0313 kg/ha,9.0
same,Preemergence herbicidal rating IPOHE,[1]; rate 0.0625 kg/ha,9.0
same,Preemergence herbicidal rating IPOHE,[1]; rate 0.1250 kg/ha,9.0
same,Preemergence herbicidal rating IPOHE,[1]; rate 0.2500 kg/ha,9.0
same,Herbicidal rating TRZAWR,[2]; rate 0.0156 kg/ha,2.5
same,Herbicidal rating TRZAWR,[2]; rate 0.0313 kg/ha,2.5
same,Herbicidal rating TRZAWR,[2]; rate 0.0625 kg/ha,4.0
same,Herbicidal rating GLXMAW,[3]; rate 0.0156 kg/ha,4.0
same,Herbicidal rating GLXMAW,[3]; rate 0.0313 kg/ha,4.5
same,Herbicidal rating GLXMAW,[3]; rate 0.0625 kg/ha,5.5
same,Herbicidal rating SETVI,"SETVI (Foxtail, Green); rate 0.0156 kg/ha",5.0
same,Herbicidal rating SETVI,"SETVI (Foxtail, Green); rate 0.0313 kg/ha",5.0
same,Herbicidal rating SETVI,"SETVI (Foxtail, Green); rate 0.0625 kg/ha",9.0
same,Preemergence herbicidal rating GALAP,GALAP (Galium); rate 0.0156 kg/ha,2.0
same,Preemergence herbicidal rating GALAP,GALAP (Galium); rate 0.0313 kg/ha,4.0
same,Preemergence herbicidal rating GALAP,GALAP (Galium); rate 0.0625 kg/ha,4.0
same,Preemergence herbicidal rating GALAP,GALAP (Galium); rate 0.1250 kg/ha,9.0
same,Preemergence herbicidal rating GALAP,GALAP (Galium); rate 0.2500 kg/ha,9.0
same,Herbicidal rating ABUTH,ABUTH (Velvetleaf); rate 0.0156 kg/ha,9.0
same,Herbicidal rating ABUTH,ABUTH (Velvetleaf); rate 0.0313 kg/ha,9.0
same,Herbicidal rating ABUTH,ABUTH (Velvetleaf); rate 0.0625 kg/ha,9.0
same,Preemergence herbicidal rating ZEAMX,"ZEAMX (Corn, Field); rate 0.0156 kg/ha",7.0
same,Preemergence herbicidal rating ZEAMX,"ZEAMX (Corn, Field); rate 0.0313 kg/ha",7.0
same,Preemergence herbicidal rating ZEAMX,"ZEAMX (Corn, Field); rate 0.0625 kg/ha",7.0
same,Preemergence herbicidal rating ZEAMX,"ZEAMX (Corn, Field); rate 0.1250 kg/ha",9.0
same,Preemergence herbicidal rating ZEAMX,"ZEAMX (Corn, Field); rate 0.2500 kg/ha",9.0
same,Herbicidal rating ECHCG,ECHCG (Barnyardgrass) [4]; rate 0.0156 kg/ha,3.0
same,Herbicidal rating ECHCG,ECHCG (Barnyardgrass) [4]; rate 0.0313 kg/ha,3.0
same,Herbicidal rating ECHCG,ECHCG (Barnyardgrass) [4]; rate 0.0625 kg/ha,4.0
same,Preemergence herbicidal rating CHEAL,[5]; rate 0.0156 kg/ha,9.0
same,Preemergence herbicidal rating CHEAL,[5]; rate 0.0313 kg/ha,9.0
same,Preemergence herbicidal rating CHEAL,[5]; rate 0.0625 kg/ha,9.0
same,Preemergence herbicidal rating CHEAL,[5]; rate 0.1250 kg/ha,9.0
same,Preemergence herbicidal rating CHEAL,[5]; rate 0.2500 kg/ha,9.0
same,Herbicidal rating IPOHE,[6]; rate 0.0156 kg/ha,9.0
same,Herbicidal rating IPOHE,[6]; rate 0.0313 kg/ha,9.0
same,Herbicidal rating IPOHE,[6]; rate 0.0625 kg/ha,9.0
same,Preemergence herbicidal rating ECHCG,ECHCG (Barnyardgrass) [7]; rate 0.0156 kg/ha,2.0
same,Preemergence herbicidal rating ECHCG,ECHCG (Barnyardgrass) [7]; rate 0.0313 kg/ha,9.0
same,Preemergence herbicidal rating ECHCG,ECHCG (Barnyardgrass) [7]; rate 0.0625 kg/ha,7.0
same,Preemergence herbicidal rating ECHCG,ECHCG (Barnyardgrass) [7]; rate 0.1250 kg/ha,9.0
same,Preemergence herbicidal rating ECHCG,ECHCG (Barnyardgrass) [7]; rate 0.2500 kg/ha,9.0
same,Herbicidal rating AMBEL,"AMBEL (Ragweed, Common); rate 0.0156 kg/ha",7.0
same,Herbicidal rating AMBEL,"AMBEL (Ragweed, Common); rate 0.0313 kg/ha",7.0
same,Herbicidal rating AMBEL,"AMBEL (Ragweed, Common); rate 0.0625 kg/ha",9.0

# — US20020137929A1, “1 - (3-heterocyclylphenyl) isothiourea, -isourea, -guanidine and -amidine herbicidal agents” (Intellectual Property Department, BASF Aktiengesellschaft, priority 1998, published 2002)
